Laboratory results published in the METLIN SMRT retention time set (Domingo-Almenara et al. 2019).

Assay: gradient 5% acetonitrile 3 min, to 50% in 2 min, to 85% in 15 min, held 3 min, 100 µL/min
Conditions: column: Zorbax Extend-C18 2.1 x 50 mm; eluents: water / acetonitrile, 0.1% formic acid
Procedure, shortened: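 In both positive and negative ionization mode, a quadrupole time-of-flight mass spectrometer coupled to HPLC analyzed pure standards run in mixtures of ~100 molecules. The Zorbax Extend-C18 column (2.1 × 50 mm, 1.8 μm) was operated at 100 μL/min with water and acetonitrile, each containing 0.1% formic acid. The dead volume was 40 μL and the dwell volume 900 μL. Retention time came from adduct peaks that were computationally picked and individually inspected by hand.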

Row | RP-LC retention time | Structure (SMILES)
1 | 590 s | CCOC(=O)CNC(=O)Nc1cc(F)c2nc(N3CCCC3)ccc2c1
2 | 750 s | CCN1C(=O)C2(CCN(C(=O)c3cc(C)n(C)n3)CC2)c2ccccc21
3 | 732 s | Cc1nc(-c2cnccn2)nc2c1CCC(=O)N2Cc1ccc(F)cc1
4 | 601 s | CC1CCCCN1CCNC(=O)c1ccc2c(c1)nc1n2CCN(Cc2ccccc2)C1=O (stereo not given)
5 | 709 s | CCC1CCCCN1c1cc(SCC(=O)Nc2ccc(N(C)C)cc2)ncn1 (stereo not given)
6 | 599 s | Nc1nc(N)c2nc(-c3cccc(O)c3)cnc2n1
7 | 628 s | COc1ccc(NC(=O)c2c(OC)cc(=O)n3c2CCCC3)cc1OC
8 | 777 s | O=C(Nc1ccc(-n2cnnn2)cc1)c1csc(Nc2ccccc2)n1
9 | 884 s | COc1ccc(Cn2nnc(C(=O)N3CCSCC3)c2-n2cccc2)cc1
10 | 701 s | CC(C)n1c(CCNC(=O)c2cccc(Cl)c2)nc2cccnc21
11 | 916 s | CCC(=O)N1c2ccc(S(=O)(=O)N3CCCCC3)cc2CC1C(=O)NCc1ccccc1C (stereo not given)
12 | 814 s | COc1cc(C(=O)N(C)CCc2noc(C3CCCCC3)n2)cc(OC)c1OC
13 | 1130 s | Cc1ccc2c(c1)N(S(C)(=O)=O)CCC(C(=O)Nc1ccc(C(C)C)cc1)O2 (stereo not given)
14 | 565 s | O=C(NC1CCN(Cc2ccccc2)CC1)c1csc(-c2ccc(N3CCCC3)nc2)n1
15 | 617 s | CCCN(CCC)CC(=O)N1CC(=O)Nc2ccccc21
16 | 591 s | OC1(c2ccccn2)CCOC2(CCN(Cc3ccc(Cl)c(F)c3)CC2)C1 (stereo not given)
17 | 584 s | CC(C)CNC(=O)C1(CCO)CCN(c2ncccn2)C1 (stereo not given)
18 | 881 s | CCN(CC)C(=O)C1CCCN(c2ncnc3c2cnn3-c2ccccc2)C1 (stereo not given)
19 | 670 s | CC(=O)N1CCc2c(sc(NC(=O)c3cc(=O)c4ccccc4o3)c2C#N)C1
20 | 600 s | O=C(Nc1nnc(-c2ccncc2)o1)c1cc(=O)c2ccccc2o1
21 | 664 s | O=C(NCCS(=O)(=O)N1CCN(c2ncccn2)CC1)Nc1cccs1
22 | 668 s | O=C(Nc1ccccc1)[C@@H]1OCCN(C2CC2)[C@H]1c1ccccc1
23 | 650 s | CC(C)c1noc(C2Cc3ccccc3N2C(=O)NC2CCCC2)n1 (stereo not given)

Row | RP-LC retention time | Structure (SMILES)
24 | 691 s | O=C(CN1CCc2[nH]c3c(F)c(Cl)ccc3c(=O)c2C1)Nc1cc(F)ccc1F
25 | 664 s | Cc1noc(C)c1CC(=O)NCC1Cn2cccc2C(=O)N1CC(C)C (stereo not given)
26 | 587 s | Cc1noc(C)c1C(=O)N1CCCn2ccnc2C1C1CCCC1 (stereo not given)
27 | 934 s | OC(COCCOc1c(F)cc(Br)cc1F)CSc1ccccn1 (stereo not given)
28 | 648 s | O=C(Cc1ccsc1)Nc1ccc(-c2nnc3n2CCCC3)cc1
29 | 620 s | Cc1cccn2cc(-c3cccc(S(=O)(=O)N(C)C)c3)nc12
30 | 802 s | Cc1ccc(N2C=C(C(=O)N3CCCC3)S(=O)(=O)c3ccccc32)cc1
31 | 846 s | Cc1nsc2ncc(C(=O)N3CCOCC3)c(N3CCC(C(=O)Nc4ccc(Cl)cc4)CC3)c12
32 | 827 s | Cc1cc(S(=O)(=O)N2CCC(n3c(-c4ccco4)nc4cccnc43)C2)ccc1F (stereo not given)
33 | 853 s | CCc1ccc(N2C=NS(=O)(=O)c3cccnc32)cc1
34 | 768 s | COCc1nc2cccnc2n1C1CCN(C(=O)Nc2cccc(Br)c2)CC1
35 | 691 s | Cc1cc(C(=O)N2CCC(N3C(=O)C4(CCCC4)C3c3scnc3C)CC2)n(C)n1 (stereo not given)
36 | 588 s | Cc1cc(C(=O)NCc2cccnc2)c2cc(Br)ccc2n1
37 | 1020 s | COc1ccc(-c2ncc3c(n2)CCN(C(=O)c2cccc(Br)c2)C3)cc1
38 | 701 s | Cc1cc(=O)n(CC(=O)NCCc2ccc(Cl)cc2)c(N2CCOCC2)n1
39 | 1010 s | Cc1ccc(CNC(=O)C2(C)CCCN(C(=O)Nc3ccccc3C(F)(F)F)C2)cc1 (stereo not given)
40 | 650 s | O=C(c1ccc(Cl)cc1)N1CCCN(c2nnc3ccccn23)CC1
41 | 1210 s | Cc1ccc(NS(=O)(=O)c2cc(-c3nc(C(C)(C)C)cs3)cs2)cc1
42 | 762 s | O=C(NC1CC1)c1cn(-c2ncccc2-c2nc(-c3ccccc3)no2)cn1
43 | 677 s | O=C1CCc2cc(S(=O)(=O)NCc3ccco3)cc3c2N1CCC3
44 | 682 s | CCOC(=O)C1=C(C)NC(=O)NC1c1ccc(OCC(=O)N2CCCCC2)cc1 (stereo not given)
45 | 654 s | Cc1nnc(-c2coc(S(=O)(=O)N3CCOCC3)c2)o1
46 | 956 s | COc1cc(OC)c(NC(=O)N2CCC(n3c(C(F)(F)F)nc4cccnc43)CC2)cc1Cl

Row | RP-LC retention time | Structure (SMILES)
47 | 946 s | CCCCN(C)C(=O)Cn1cncc(-c2nc(-c3ccccc3)cs2)c1=O
48 | 615 s | O=C(CCCN1C(=O)C(c2ccccc2)Oc2cccnc21)NCCCN1CCOCC1 (stereo not given)
49 | 1040 s | COc1cccc(-c2nc(-c3ccc(NS(=O)(=O)c4cccs4)cc3)no2)c1OC
50 | 890 s | Cc1ccc(C(=O)Nc2ccc(-c3nc(Cn4cccn4)c(C)o3)cc2)s1
51 | 668 s | CCOc1ccc(CNC(=O)c2c(C)oc3c2C2=NCCN2C=N3)cc1
52 | 985 s | CCn1c(=O)sc2cc(S(=O)(=O)N3CCC(C(=O)Nc4ccc(C(C)C)cc4)CC3)ccc21
53 | 652 s | COc1ccc(CNC(=O)N2CCC(c3noc(-c4cnccn4)n3)C2)cc1 (stereo not given)
54 | 1300 s | CC(C)(C)c1csc(-c2csc(S(=O)(=O)Nc3ccc(Cl)cc3)c2)n1
55 | 840 s | CC(CNC(=O)CCS(=O)(=O)c1ccc2c(c1)CCN2C(=O)C1CC1)c1ccccc1 (stereo not given)
56 | 790 s | CC(C)CCNC(=O)C1CCN(c2cnn(Cc3ccccc3)c(=O)c2)CC1
57 | 664 s | O=C([C@@H]1C[C@H](F)CN1S(=O)(=O)c1ccc(F)cc1)N1CCOCC1
58 | 881 s | Cc1cccc(N2CCN(S(=O)(=O)c3ccc4c(c3)CCCC(=O)N4)CC2C)c1 (stereo not given)
59 | 696 s | C[C@H](Cc1ccccc1)Nc1ncnc2c1ncn2[C@@H]1O[C@H](CO)[C@H](O)C1O (stereo not given in full)
60 | 982 s | CCCCC(=O)Nc1nc(-c2ccc3c(c2)N(CC)C(=O)CO3)c(C)s1
61 | 1180 s | Cc1nc2cc(-c3noc(COc4ccc(Cl)cc4C)n3)ccc2o1
62 | 877 s | Cc1cccc(-c2csc3c(=O)n(Cc4ccccn4)cnc23)c1
63 | 910 s | CN(C)S(=O)(=O)c1ccc(C(=O)Nc2nc(-c3ccc4c(c3)OCO4)cs2)cc1
64 | 1300 s | O=C1CC(c2cc(F)cc(F)c2)Cc2nc(N3CCN(c4ccccc4F)CC3)ncc21 (stereo not given)
65 | 1040 s | CCNS(=O)(=O)c1cccnc1Nc1ccc(F)c(Cl)c1
66 | 935 s | C#CCSc1nc2ccc([N+](=O)[O-])cc2s1
67 | 851 s | CCOC(=O)c1c(S(=O)(=O)N2CCC(C(=O)Nc3ccccc3F)CC2)c(C)n(C)c1C
68 | 780 s | CCn1c(-c2cccc(C(=O)NC3CCCCC3)c2)nc2cccnc21
69 | 676 s | O=C(NCC1CCCO1)c1ccc(CN2CCN(Cc3ccc(F)cc3)C(=O)C2=O)cc1 (stereo not given)

Row | RP-LC retention time | Structure (SMILES)
70 | 572 s | CCOC(=O)C1CCN(Cc2nc(-c3ccc(N4CCCC4)nc3)no2)CC1
71 | 1230 s | Cc1cc(C)c(NS(=O)(=O)c2cc(-c3cc(C(F)(F)F)on3)sc2C)c(C)c1
72 | 601 s | COc1ccc(-c2c(C(=O)NCCN3CCOCC3)nc3ccccn23)cc1
73 | 1130 s | Cc1ccc(C)c(Cn2nc3ccc(S(=O)(=O)N4CCC(C)CC4)cn3c2=O)c1
74 | 559 s | c1ccc(OCc2nc3ccccc3n2CC2CCN(Cc3ccccn3)CC2)cc1
75 | 910 s | COc1ccc(-n2ncc3c(=O)n(Cc4nc(-c5ccc(OC)c(OC)c5)no4)cnc32)cc1
76 | 709 s | Nc1ncnc2c1c(-c1cnc3[nH]ccc3c1)nn2C1CCCC1
77 | 697 s | Cc1ccc(-c2cc3c(=O)n(Cc4noc(CN5CCCC5)n4)ccn3n2)cc1C
78 | 606 s | O=C(c1ccc(N2CCNC(c3ccccc3)C2)nc1)N1CCSCC1 (stereo not given)
79 | 621 s | CCOC(=O)c1c(C)[nH]c(CCC(=O)NCCN2CCCCCC2)c1C
80 | 667 s | O=C(NC1CC(=O)N(Cc2ccccc2)C1)c1ccco1 (stereo not given)
81 | 657 s | Fc1ccc(OCc2nc(-c3ccc4c(c3)ncn4CCN3CCCC3)no2)cc1
82 | 943 s | CC(C)NC(=O)N(CC(=O)N1CCc2sccc2C1COc1ccccc1)CC1CC1 (stereo not given)
83 | 824 s | COc1ccccc1-c1nc2nccc(-c3cc(OC)c(OC)c(OC)c3)n2n1
84 | 795 s | COc1cccc(-c2nc3sc(C(=O)N4CCOCC4)c(C)n3c2NC(C)(C)C)c1
85 | 1080 s | CCCCN1C(=O)C(C)(C(=O)Nc2ccc(OC)c(Cl)c2)Oc2cccnc21 (stereo not given)
86 | 690 s | Cc1cc(C)cc(NC(=O)NC2CCN(c3cc(N4CCCC4)cnn3)C2)c1 (stereo not given)
87 | 668 s | Nc1ncncc1-c1ccc2ccccc2c1
88 | 602 s | Nc1ccc(C(=O)Nc2ccc(Nc3ccncc3)cc2)cc1
89 | 731 s | CC(=O)N1CCC(C(=O)NCc2ccc(-c3nc(-c4cccs4)no3)s2)CC1
90 | 865 s | COc1cc(OC)c(NC(=O)Nc2cc(C)on2)cc1Cl
